{"source": "patent EP0080071A2", "about": "“2-Imidazolylmethyl-2-phenyl-1,3-dioxolanes, process for their preparation and their use as fungicides” (BAYER AG, priority 1981, dated 1983)", "key": {"[1]": {"test_system": "Drechslera graminea (syn. Helminthosporium gramineum)", "experiment": "Drechslera graminea test (barley) / seed treatment", "type": "in vivo", "settings": "dry seed dressing of infected barley seed; evaluation for stripe disease symptoms ca. 3 weeks after sowing; compared with the prior-art comparison substances", "description": "Drechslera graminea-Test (Gerste) / Saatgutbehandlung (syn. Helminthosporium gramineum)\nDie Anwendung der Wirkstoffe erfolgt als Trockenbeizmittel. Sie werden zubereitet durch Abstrecken des jeweiligen Wirkstoffes mit Gesteinsmehl zu einer feinpulvrigen Mischung, die eine gleichmäßige Verteilung auf der Saatgutoberfläche gewährleistet.\nZur Beizung schüttelt man das infizierte Saatgut 3 Minuten lang mit dem Beizmittel in einer verschlossenen Glasflasche.\nDas Saatgut setzt man in gesiebter, feuchter Standarderde eingebettet, in verschlossenen Petrischalen im Kühlschrank 10 Tage lang einer Temperatur von 4°C aus. Dabei wird die Keimung der Gerste und gegebenenfalls auch der Pilzsporen eingeleitet. Anschließend sät man die vorgekeimte Gerste mit 2 x 50 Korn 3 cm tief in eine Standarderde und kultiviert sie im Gewächshaus bei einer Temperatur von ca. 18°C in Saatkästen, die täglich 15 Stunden dem Licht ausgesetzt werden.\nCa. 3 Wochen nach der Aussaat erfolgt die Auswertung der Pflanzen auf Symptome der Streifenkrankheit."}, "Podosphaera leucotricha": {"test_system": "Podosphaera leucotricha", "experiment": "Podosphaera test (apple) / protective", "type": "in vivo", "settings": "protective spray on young apple plants; evaluation 9 days after inoculation; compared with the prior-art comparison substances", "description": "Podosphaera-Test (Apfel) / protektiv\n• Lösungsmittel: 4,7 Gewichtsteile Aceton • Emulgator: 0,3 Gewichtsteile Alkylarylpolyglykolether\nZur Herstellung einer zweckmäßigen Wirkstoffzubereitung vermischt man 1 Gewichtsteil Wirkstoff mit den angegebenen Mengen Lösungsmittel und Emulgator und verdünnt das Konzentrat mit Wasser auf die gewünschte Konzentration.\nZur Prüfung auf protektive Wirksamkeit bespritzt man jungePflanzen mit der Wirkstoffzubereitung bis zur Tropfnässe. Nach Antrocknen des Spritzbelages werden die Pflanzen durch Bestäuben mit Konidien des Apfelmehltauerregers (Podosphaera leucotricha) inokuliert.\nDie Pflanzen werden dann im Gewächshaus bei 23°C und einer relativen Luftfeuchtigkeit von ca. 70 % aufgestellt.\n9 Tage nach der Inokulation erfolgt die Auswertung."}}}
{"smiles": "Cl.FC(F)(F)c1cc(Cl)ccc1C1(Cn2ccnc2)OCCO1", "note": "[Beispiel 1, 2-(4-Chlor-2-trifluormethyl)-phenyl-2-(imidazol-1-yl)-methyl-1,3-dioxolan-hydrochlorid]", "values": [{"measurement": "Wirksamkeit", "setting": "[1]", "value": "deutliche überlegenheit in der Wirksamkeit gegenüber dem Stand der Technik"}, {"measurement": "Wirksamkeit", "setting": "Podosphaera leucotricha", "value": "deutliche Überlegenheit in der Wirksamkeit gegenüber dem Stand der Technik"}]}
